Where “and” joins values, the source holds several entries; their conditions need not be identical. Equal values may be shown once. Inconclusive results and toxic doses are left out.

For the assay, the system named is P388 leukemia ip, CD2F1 mice, survival T/C. As to the kind of experiment: NCI In Vivo Anticancer Drug Screen. Data for tumor model P388 Leukemia (intraperitoneal) in CD2F1 (CDF1) mice. The following applies: endpoint: median survival time, higher = longer survival. Summed up:
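Mice carrying the transplanted tumor received test compound or vehicle. Survival was recorded in each group, and the value is the treated-group measurement divided by that of the vehicle-treated control group.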

Where [1] appears, read: dose: 200.0 mg/kg/injection, schedule: Q04DX003 (ip), vehicle: saline with Tween-80.
Setting [2] is: dose: 25.0 mg/kg/injection, schedule: Q01DX009 (ip), vehicle: saline with Tween-80.
The mark [3] stands for this setting: dose: 50.0 mg/kg/injection, schedule: Q01DX009 (ip), vehicle: saline with Tween-80.
Setting [4] is: dose: 100.0 mg/kg/injection, schedule: Q01DX009 (ip), vehicle: saline with Tween-80.
Setting [5] is: dose: 50.0 mg/kg/injection, schedule: Q01DX005 (ip), vehicle: Klucel (hydroxypropylcellulose) (HPC).
Where [6] appears, read: dose: 100.0 mg/kg/injection, schedule: Q01DX005 (ip), vehicle: Klucel (hydroxypropylcellulose) (HPC).
[7] abbreviates: dose: 200.0 mg/kg/injection, schedule: Q01DX005 (ip), vehicle: Klucel (hydroxypropylcellulose) (HPC).
Where [8] appears, read: dose: 50.0 mg/kg/injection, schedule: Q01DX005 (ip), vehicle: saline with Tween-80.
The mark [9] stands for this setting: dose: 100.0 mg/kg/injection, schedule: Q01DX005 (ip), vehicle: saline with Tween-80.
The mark [10] stands for this setting: dose: 200.0 mg/kg/injection, schedule: Q01DX005 (ip), vehicle: saline with Tween-80.
Setting [11] is: dose: 60.0 mg/kg/injection, schedule: Q01DX005 (ip), vehicle: saline with Tween-80.

On to `CCOP(=O)(O)OCC.[Sc]`, for which the T/C is 93 % of control (dose: 100.0 mg/kg/injection, schedule: Q04DX002 (ip), vehicle: saline with Tween-80); 101 % of control (dose: 200.0 mg/kg/injection, schedule: Q04DX002 (ip), vehicle: saline with Tween-80); 104 % of control (dose: 400.0 mg/kg/injection, schedule: Q04DX002 (ip), vehicle: saline with Tween-80).
For the compound `NSc1nc2ccccc2s1`, the T/C was 100 % of control (dose: 100.0 mg/kg/injection, schedule: Q04DX003 (ip), vehicle: saline with Tween-80) and 100 % of control under setting [1].
Turning to `Clc1cc2c(c(CSC3=NCN(CC4CC4)CN3)c1)OCOC2`, the T/C reads like this: (dose: 15.0 mg/kg/injection, schedule: Q01DX005 (ip), vehicle: Klucel (hydroxypropylcellulose) (HPC)) 99 % of control; (dose: 30.0 mg/kg/injection, schedule: Q01DX005 (ip), vehicle: Klucel (hydroxypropylcellulose) (HPC)) 100 % of control; (dose: 60.0 mg/kg/injection, schedule: Q01DX005 (ip), vehicle: Klucel (hydroxypropylcellulose) (HPC)) 98 % of control and 101 % of control.
For `O=C(CCl)NCc1ccc([N+](=O)[O-])cc1`, the T/C by setting is: under setting [2], 108 % of control; under setting [3], 112 % of control; under setting [4], 108 % of control; (dose: 200.0 mg/kg/injection, schedule: Q01DX009 (ip), vehicle: saline with Tween-80) 103 % of control.
Turning to `CC(CN1CCCCC1)C(=O)c1ccc(-c2ccccc2)cc1` (stereo not given), the T/C is 100 % of control under setting [2], 105 % of control under setting [3] and 100 % of control under setting [4].
For the compound `O=[N+]([O-])c1cccc(N2CN(c3ccccc3)NC(c3ccccc3)=N2)c1`, the T/C reads like this: (dose: 50.0 mg/kg/injection, schedule: Q04DX003 (ip), vehicle: saline with Tween-80) 90 % of control; under setting [1], 107 % of control.
In the case of `Cc1ccc(N2CCN(C(=O)C3=Cc4ccccc4OC3)CC2)cc1C`, the T/C was 100 % of control (dose: 100.0 mg/kg/injection, schedule: Q04DX003 (ip), vehicle: Klucel (hydroxypropylcellulose) (HPC)) and 88 % of control (dose: 200.0 mg/kg/injection, schedule: Q04DX003 (ip), vehicle: Klucel (hydroxypropylcellulose) (HPC)).
Regarding `CC(=O)Nc1cc(Cl)cc2c1-c1ccc(Cl)cc1C2N(C)C` (stereo not given), the T/C reads like this: under setting [5], 96 % of control; under setting [6], 100 % of control; under setting [7], 87 % of control.
For `Brc1cc(Br)c(I)c(Br)c1`, the T/C is 95 % of control (dose: 100.0 mg/kg/injection, schedule: Q04DX003 (ip), vehicle: other); 100 % of control (dose: 200.0 mg/kg/injection, schedule: Q04DX003 (ip), vehicle: other); 100 % of control (dose: 400.0 mg/kg/injection, schedule: Q04DX003 (ip), vehicle: other).
`CC(N1CCOCC1)C(O)(c1ccccc1)c1ccccn1` (stereo not given): the T/C reads like this: (dose: 50.0 mg/kg/injection, schedule: Q01DX005 (ip), vehicle: saline + alcohol) 103 % of control; (dose: 100.0 mg/kg/injection, schedule: Q01DX005 (ip), vehicle: saline + alcohol) 115 % of control.
On to `[O-]c1n[n+](-c2ccccc2)ns1`, for which the T/C was 99 % of control and 106 % of control (dose: 3.13 mg/kg/injection, schedule: Q01DX009 (ip), vehicle: distilled water + Tween-80); 99 % of control and 101 % of control and 114 % of control (dose: 6.25 mg/kg/injection, schedule: Q01DX009 (ip), vehicle: distilled water + Tween-80); 100 % of control and 105 % of control and 124 % of control (dose: 12.5 mg/kg/injection, schedule: Q01DX009 (ip), vehicle: distilled water + Tween-80); 99 % of control and 115 % of control and 92 % of control (dose: 25.0 mg/kg/injection, schedule: Q01DX009 (ip), vehicle: distilled water + Tween-80).
Consider `O=C(O)c1ccc(O)c(O)c1.[NH2-].[NH2-].[NH2-].[NH2-].[Ru+4]`, for which the T/C by setting is: (dose: 87.5 mg/kg/injection, schedule: Q04DX002 (ip), vehicle: saline) 104 % of control; (dose: 175.0 mg/kg/injection, schedule: Q04DX002 (ip), vehicle: saline) 108 % of control; (dose: 350.0 mg/kg/injection, schedule: Q04DX002 (ip), vehicle: saline) 105 % of control.
Turning to `COC(=O)[C@H]1[C@H]2C[C@@H]3c4[nH]c5cc(OC)ccc5c4CCN3C[C@H]2C[C@@H](OC(=O)CC(C)=O)[C@@H]1OC`, the T/C was 95 % of control under setting [8], 91 % of control under setting [9] and 88 % of control under setting [10].
With `CC1=C(C#N)C(=O)NC(C)C1` (stereo not given), the T/C is 108 % of control (dose: 25.0 mg/kg/injection, schedule: Q01DX005 (ip), vehicle: Klucel (hydroxypropylcellulose) (HPC)); 101 % of control under setting [5]; 108 % of control under setting [6]; 98 % of control under setting [9]; 104 % of control under setting [7]; 99 % of control under setting [10]. Moreover, the T/C reads like this: (dose: 400.0 mg/kg/injection, schedule: Q01DX005 (ip), vehicle: saline with Tween-80) 102 % of control; (dose: 500.0 mg/kg/injection, schedule: Q01DX001 (ip), vehicle: saline with Tween-80) 100 % of control; (dose: 1000.0 mg/kg/injection, schedule: Q01DX001 (ip), vehicle: saline with Tween-80) 99 % of control; (dose: 2000.0 mg/kg/injection, schedule: Q01DX001 (ip), vehicle: saline with Tween-80) 108 % of control.
In the case of `CCN(CC)CCC(=O)c1ccc(OC)c2ccccc12`, the T/C was 103 % of control (dose: 50.0 mg/kg/injection, schedule: Q01DX005 (ip), vehicle: saline); 104 % of control (dose: 100.0 mg/kg/injection, schedule: Q01DX005 (ip), vehicle: saline); 103 % of control (dose: 200.0 mg/kg/injection, schedule: Q01DX005 (ip), vehicle: saline).
`CC(=NC1CCCCC1)c1c(O)oc(C=Nc2ccccc2)c1O`: the T/C is, setting by setting: under setting [8], 100 % of control; under setting [9], 105 % of control; under setting [10], 100 % of control.
As for `O=C(Cc1nc2ccc(Cl)cc2nc1CC(=O)c1ccccc1)c1ccccc1`, the T/C was 102 % of control (dose: 15.0 mg/kg/injection, schedule: Q01DX005 (ip), vehicle: saline with Tween-80); 111 % of control (dose: 30.0 mg/kg/injection, schedule: Q01DX005 (ip), vehicle: saline with Tween-80); 100 % of control and 107 % of control under setting [11].
Take `S=c1ncn(C2CCCC2)c(=S)[nH]1`: the T/C under setting [5] is 93 % of control, the T/C under setting [6] is 103 % of control and the T/C under setting [7] was 100 % of control.
Taken in the same sequence, the figures for `CCOP(=S)(N/N=C/c1ccc(Cl)s1)OCC` were 115 % of control, 110 % of control and 114 % of control.
On to `Cn1c2ccccc2c(=Nc2ccc(S(N)(=O)=O)cc2)c2ccccc21`, for which, under setting [9], the T/C was 97 % of control.
Take `CC(=O)OC1/C=C\CC/C=C\C1` (stereo not given): the T/C under setting [11] is 99 % of control; the T/C (dose: 120.0 mg/kg/injection, schedule: Q01DX005 (ip), vehicle: saline with Tween-80) is 102 % of control; the T/C (dose: 240.0 mg/kg/injection, schedule: Q01DX005 (ip), vehicle: saline with Tween-80) was 103 % of control.
For the compound `CCC(=O)C1C(=O)CC(=O)C(C)C1c1ccccc1OC` (stereo not given), the T/C was 92 % of control under setting [8], 90 % of control under setting [9] and 87 % of control under setting [10].
As for `C/C=C(\C)c1cc(=O)c2c(C)cc3c(c2o1)C(=O)c1c(O)c(C2CC(C)(N(C)C)C(O)C(C)O2)cc(C2CC(N(C)C)C(O)C(C)O2)c1C3=O` (stereo not given), the T/C is 100 % of control (dose: 0.31 mg/kg/injection, schedule: Q01DX009 (ip), vehicle: saline); 153 % of control (dose: 0.62 mg/kg/injection, schedule: Q01DX009 (ip), vehicle: saline); 91 % of control (dose: 1.25 mg/kg/injection, schedule: Q01DX009 (ip), vehicle: saline); 118 % of control (dose: 2.0 mg/kg/injection, schedule: Q01DX009 (ip), vehicle: Klucel (hydroxypropylcellulose) (HPC)); 154 % of control (dose: 2.0 mg/kg/injection, schedule: Q01DX009 (ip), vehicle: saline); 109 % of control (dose: 3.0 mg/kg/injection, schedule: Q01DX009 (ip), vehicle: saline). Besides, the T/C was 94 % of control (dose: 5.0 mg/kg/injection, schedule: Q01DX009 (ip), vehicle: saline) and 95 % of control (dose: 6.25 mg/kg/injection, schedule: Q01DX009 (ip), vehicle: saline with Tween-80).
Consider `Nc1cc2oc(=O)[nH]c2cc1Cl`, for which the T/C is 90 % of control under setting [5], 92 % of control under setting [6] and 103 % of control under setting [7].

Values taken from PubChem BioAssay AID330 (DTP/NCI, 2004).
